Measurements reported in the supplement of paper PMC4954754.
± gives the uncertainty stated by the source.

Tests used:
Conditions in all cases: 18 h
HEK293T-Rex XBP1-RLuc [1] = assay: maximal XBP1-RLuc activation from dose-response fit, relative to thapsigargin (% of thapsigargin); higher = stronger activation
Experimental: (§1)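 Dose-response of hit compounds in HEK293T-Rex cells stably expressing ERSE-FLuc or XBP1-RLuc reporters, 18 hr treatment, 1536-well; luminescence normalised to 500 nM thapsigargin (100%) and DMSO (0%), fitted to give EC50 (M) and maximal activation; '>' marks EC50 above the top tested dose (~17 µM).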

HEK293T-Rex ERSE-FLuc [2] = assay: EC50 for ERSE-FLuc reporter activation
Experimental: as §1

HEK293T-Rex XBP1-RLuc [3] = assay: EC50 for XBP1-RLuc reporter activation
Experimental: as §1

HEK293T-Rex ERSE-FLuc [4] = assay: maximal ERSE-FLuc activation from dose-response fit, relative to thapsigargin (% of thapsigargin); higher = stronger activation
Experimental: as §1

Structure (SMILES)	maximal XBP1-RLuc activation (HEK293T-Rex XBP1-RLuc [1])	EC50 for ERSE-FLuc reporter activation (HEK293T-Rex ERSE-FLuc [2]) [µM]	EC50 for XBP1-RLuc reporter activation (HEK293T-Rex XBP1-RLuc [3]) [µM]	maximal ERSE-FLuc activation (HEK293T-Rex ERSE-FLuc [4])
Cc1ccc2nc(/C(C#N)=C/c3ccc(O)c(O)c3)[nH]c2c1	19.7 ± 5.9	> 16.9	> 16.9	23.4 ± 2.9
O=C(N/N=C\C(Cl)=C\c1ccccc1)c1n[nH]c2c1CCCC2	3.51 ± 3.7	> 16.9	> 16.9	19.7 ± 5.1
O=c1[nH]c(/C=C2\C=Nc3ccccc32)c(O)n1-c1ccc(Cl)cc1	89 ± 4.6	> 16.9	4.87	44.1 ± 7.8
CN(C)c1ccc(C(=NO)c2ccc(N(C)C)cc2)cc1	7.51 ± 2.8	> 17.1	> 17.1	21.7 ± 4.1
O=C(NC(c1ccccc1)c1ccccc1)c1csc(-c2cnccn2)n1	43.4 ± 9.4	> 16.9	> 16.9	34.2 ± 3.6
Cc1ccccc1-c1cc(=O)c2cc(Cl)ccc2o1	21.7 ± 1.1	> 17	> 17	24.3 ± 3.6
CCOc1cc(C2C(C(=O)OC3CCCCC3)=C(C)NC3=C2C(=O)CC(c2ccc(OC)cc2)C3)cc(Br)c1O (configuration not stated)	88.6 ± 10	3.95	5.3	70.43 ± 0.082
O=[N+]([O-])c1ccccc1NC(=S)N/N=C/c1ccc(O)c(O)c1	28.2 ± 2.5	> 18.3	> 18.3	21.3 ± 3.4
CC(C)c1ccc(NC(=O)/C=C/c2ccco2)cc1	7.59 ± 2.4	> 17.2	> 17.2	21.5 ± 4.6
O=c1/c(=C/c2ccc(O)c(O)c2)sc2nc3ccccc3n12	43.9 ± 5.4	6.02	> 16.9	59.2 ± 3.9
CCCc1cc(C(=O)Nc2cc(C)ccc2O)no1	30 ± 2.2	2.84	> 16.9	116 ± 9.5
Cc1ccn2cc(-c3ccc(O)c(O)c3)nc2c1	70.3 ± 12	> 20.3	11.9	25.3 ± 5.2
Oc1cccc(/C=N/Nc2ccc(Cl)nn2)c1O	19.4 ± 1	> 17.9	> 17.9	41.7 ± 1.8
CCOC(=O)c1sc(NC(=O)c2cccc3ccccc23)nc1C	3.29 ± 3.4	> 16.9	> 16.9	25.3 ± 5.7
Nc1ccccc1NC(=O)c1ccc(Cl)cc1	34.9 ± 0.91	7.9	> 17.2	82.8 ± 4.7
CCOc1ccc(NC(=O)c2cccc(F)c2)c([N+](=O)[O-])c1	2.67 ± 1.8	> 14.3	> 14.3	26.4 ± 1.6
O=C(/C=C/c1ccco1)Nc1ccc(Br)cc1Cl	4.5 ± 6.9	> 16.9	> 16.9	23.5 ± 2.5
Cc1cc(C)nc(/N=C(\N)Nc2ccc(OCCC(C)C)cc2)n1	89.1 ± 9.1	> 15.5	> 5.17	45.3 ± 7.7
